Literature values as cited in patent publication US20150366978A1, “Compositions Containing Chondroitin Sulphate, Proteolytic Enzymes and Sulphydryl Compounds for Improving the Bioavailability of Chondroitin Sulphate” (GNOSIS S.P.A., priority 2013, published 2015).
Blank lines part the entries; values can stand above or below the substance they belong to.

Assays:
[1] = oral

Substance: bromelain
oral bioavailability: around 40%

total uptake of CS by the intestinal mucosa ([1]; including oligosaccharides, % of the polysaccharide ingested): 20-23%
Substance: chondroitin sulphate [CS]

absorption of high-molecular-weight CS ([1]; absorbed as intact polysaccharide): 1-5%
Substance: chondroitin sulphate [high-molecular-weight CS]
